In US12577245B2, “Sulfonyl benzamide derivatives as Bcl-2 inhibitors” (ASCENTAGE PHARMA (SUZHOU) CO., LTD., priority 2021, dated 2026):
Like-named read-outs stand apart in the source and are kept apart here.

Target: Bcl-2 G101V (Homo sapiens, UniProt P10415, G101V)
Experiment: Bcl-2 G101V inhibition, fluorescence polarization (Flu-BIM tracer) binding assay
[1] = FP, 20 nM Bcl2, 5 nM Flu-BIM, 1 h incubation, read-out: Bcl-2 G101V (FP)

Row | Structure (SMILES) | IC50 [1] [nM] | IC50 [nM]
1 | Cc1sccc1C1=C(CN2CCN(c3ccc(C(=O)NS(=O)(=O)c4ccc(NCC5CCOCC5)c([N+](=O)[O-])c4)c(Oc4cnc5[nH]ccc5c4)c3)CC2)CCC(C)(C)C1 [Example 1, 2-((1H-pyrrolo[2,3-b]pyridin-5-yl)oxy)-4-(4-((4,4-dimethyl-2-(2-methylthiophen-3-yl)cyclohex-1-en-1-yl)methyl)piperazin-1-yl)-N-((3-nitro-4-(((tetrahydro-2H-pyran-4-yl)methyl)amino)phenyl)sulfonyl)benzamide] | 32.7 | –
2 | Cc1cscc1C1=C(CN2CCN(c3ccc(C(=O)NS(=O)(=O)c4ccc(NCC5CCOCC5)c([N+](=O)[O-])c4)c(Oc4cnc5[nH]ccc5c4)c3)CC2)CCC(C)(C)C1 [Example 2, 2-((1H-pyrrolo[2,3-b]pyridin-5-yl)oxy)-4-(4-((4,4-dimethyl-2-(4-methylthiophen-3-yl)cyclohex-1-en-1-yl)methyl)piperazin-1-yl)-N-((3-nitro-4-(((tetrahydro-2H-pyran-4-yl)methyl)amino)phenyl)sulfonyl)benzamide] | 32.6 | –
3 | CC1(C)CCC(CN2CCN(c3ccc(C(=O)NS(=O)(=O)c4ccc(NCC5CCOCC5)c([N+](=O)[O-])c4)c(Oc4cnc5[nH]ccc5c4)c3)CC2)=C(c2csc(C(F)(F)F)c2)C1 [Example 3, 2-((1H-pyrrolo[2,3-b]pyridin-5-yl)oxy)-4-(4-((4,4-dimethyl-2-(5-(trifluoromethyl)thiophen-3-yl)cyclohex-1-en-1-yl)methyl)piperazin-1-yl)-N-((3-nitro-4-(((tetrahydro-2H-pyran-4-yl)methyl)amino)phenyl)sulfonyl)benzamide] | 45.6 | –
4 | Cc1ccc(C2=C(CN3CCN(c4ccc(C(=O)NS(=O)(=O)c5ccc(NCC6CCOCC6)c([N+](=O)[O-])c5)c(Oc5cnc6[nH]ccc6c5)c4)CC3)CCC(C)(C)C2)s1 [Example 6, 2-((1H-pyrrolo[2,3-b]pyridin-5-yl)oxy)-4-(4-((4,4-dimethyl-2-(5-methylthiophen-2-yl)cyclohex-1-en-1-yl)methyl)piperazin-1-yl)-N-((3-nitro-4-(((tetrahydro-2H-pyran-4-yl)methyl)amino)phenyl)sulfonyl)benzamide] | 33.9 | –
5 | CC(C)c1csc(C2=C(CN3CCN(c4ccc(C(=O)NS(=O)(=O)c5ccc(NCC6CCOCC6)c([N+](=O)[O-])c5)c(Oc5cnc6[nH]ccc6c5)c4)CC3)CCC(C)(C)C2)c1 [Example 8, 2-((1H-pyrrolo[2,3-b]pyridin-5-yl)oxy)-4-(4-((2-(4-isopropylthiophen-2-yl)-4,4-dimethylcyclohex-1-en-1-yl)methyl)piperazin-1-yl)-N-((3-nitro-4-(((tetrahydro-2H-pyran-4-yl)methyl)amino)phenyl)sulfonyl)benzamide] | 30.9 | –
6 | CC(C)c1csc(C2=C(CN3CCN(c4ccc(C(=O)NS(=O)(=O)c5ccc(NC[C@H]6COCCO6)c([N+](=O)[O-])c5)c(Oc5cnc6[nH]ccc6c5)c4)CC3)CCC(C)(C)C2)c1 [Example 10, (S)—N-((4-(((1,4-dioxan-2-yl)methyl)amino)-3-nitrophenyl)sulfonyl)-2-((1H-pyrrolo[2,3-b]pyridin-5-yl)oxy)-4-(4-((2-(4-isopropylthiophen-2-yl)-4,4-dimethylcyclohex-1-en-1-yl)methyl)piperazin-1-yl)benzamide] | 27.7 | –
7 | CC(C)c1sccc1C1=C(CN2CCN(c3ccc(C(=O)NS(=O)(=O)c4ccc(NCC5CCOCC5)c([N+](=O)[O-])c4)c(Oc4cnc5[nH]ccc5c4)c3)CC2)CCC(C)(C)C1 [Example 11, 2-((1H-pyrrolo[2,3-b]pyridin-5-yl)oxy)-4-(4-((2-(2-isopropylthiophen-3-yl)-4,4-dimethylcyclohex-1-en-1-yl)-methyl)piperazin-1-yl)-N-((3-nitro-4-(((tetrahydro-2H-pyran-4-yl)methyl)amino)-phenyl)sulfonyl)benzamide] | 37.6 | –
8 | CC1(C)CCC(CN2CCN(c3ccc(C(=O)NS(=O)(=O)c4ccc(NC[C@H]5COCCO5)c([N+](=O)[O-])c4)c(Oc4cnc5[nH]ccc5c4)c3)CC2)=C(c2cc3c(s2)CCN(c2ccc(F)cc2)C3)C1 [Example 15, (S)—N-((4-(((1,4-dioxan-2-yl)methyl)amino)-3-nitrophenyl)sulfonyl)-2-((1H-pyrrolo[2,3-b]pyridin-5-yl)oxy)-4-(4-((2-(5-(4-fluorophenyl)-4,5,6,7-tetrahydrothieno[3,2-c]pyridin-2-yl)-4,4-dimethylcyclohex-1-en-1-yl)methyl)piperazin-1-yl)benzamide] | 65.1 | –
9 | CC1(C)CCC(CN2CCN(c3ccc(C(=O)NS(=O)(=O)c4ccc(NC[C@H]5CC[C@](C)(O)CC5)c([N+](=O)[O-])c4)c(Oc4cnc5[nH]ccc5c4)c3)CC2)=C(c2cc3c(s2)CCN(c2ccc(F)cc2)C3)C1 [Example 16, 2-((1H-pyrrolo[2,3-b]pyridin-5-yl)oxy)-4-(4-((2-(5-(4-fluorophenyl)-4,5,6,7-tetrahydrothieno[3,2-c]pyridin-2-yl)-4,4-dimethylcyclohex-1-en-1-yl)methyl)piperazin-1-yl)-N-((4-((((1r,4r)-4-hydroxy-4-methylcyclohexyl)methyl)amino)-3-nitrophenyl)sulfonyl)benzamide] | 94.7 | –
10 | CC1(C)CCC(CN2CCN(c3ccc(C(=O)NS(=O)(=O)c4ccc(NC[C@H]5COCCO5)c([N+](=O)[O-])c4)c(Oc4cnc5[nH]ccc5c4)c3)CC2)=C(c2cc(C(=O)Nc3ccccc3)cs2)C1 [Example 17, (S)-5-(2-((4-(4-(((4-(((1,4-dioxan-2-yl)methyl)amino)-3-nitrophenyl)sulfonyl)carbamoyl)-3-((1H-pyrrolo[2,3-b]pyridin-5-yl)oxy)phenyl)piperazin-1-yl)methyl)-5,5-dimethylcyclohex-1-en-1-yl)-N-phenylthiophene-3-carboxamide] | – | 49.5
11 | CC1(C)CCC(CN2CCN(c3ccc(C(=O)NS(=O)(=O)c4ccc(NC[C@H]5COCCO5)c([N+](=O)[O-])c4)c(Oc4cnc5[nH]ccc5c4)c3)CC2)=C(c2cc(NC(=O)c3ccccc3)cs2)C1 [Example 18, (S)—N-((4-(((1,4-dioxan-2-yl)methyl)amino)-3-nitrophenyl)sulfonyl)-2-((1H-pyrrolo[2,3-b]pyridin-5-yl)oxy)-4-(4-((2-(4-benzamidothiophen-2-yl)-4,4-dimethylcyclohex-1-en-1-yl)methyl)piperazin-1-yl)benzamide] | 66.3 | –
12 | CC1(C)CCC(CN2CCN(c3ccc(C(=O)NS(=O)(=O)c4ccc(NC[C@H]5COCCO5)c([N+](=O)[O-])c4)c(Oc4cnc5[nH]ccc5c4)c3)CC2)=C(c2cc(Nc3ncccn3)cs2)C1 [Example 19, (S)—N-((4-(((1,4-dioxan-2-yl)methyl)amino)-3-nitrophenyl)sulfonyl)-2-((1H-pyrrolo[2,3-b]pyridin-5-yl)oxy)-4-(4-((4,4-dimethyl-2-(4-(pyrimidin-2-ylamino)thiophen-2-yl)cyclohex-1-en-1-yl)methyl)piperazin-1-yl)benzamide] | 40.9 | –
13 | CC1(C)CCC(CN2CCN(c3ccc(C(=O)NS(=O)(=O)c4ccc(NCC5CCOCC5)c([N+](=O)[O-])c4)c(Oc4cnc5[nH]ccc5c4)c3)CC2)=C(c2csc(CN3CCOCC3)c2)C1 [Example 21, 2-((1H-pyrrolo[2,3-b]pyridin-5-yl)oxy)-4-(4-((4,4-dimethyl-2-(5-(morpholinomethyl)thiophen-3-yl)cyclohex-1-en-1-yl)methyl)piperazin-1-yl)-N-((3-nitro-4-(((tetrahydro-2H-pyran-4-yl)methyl)amino)phenyl)sulfonyl)benzamide] | 64.2 | –
